System: FT cells
Assay: Amperometric recording of norepinephrine release from pre-loaded FT cells on the microarray upon ATP stimulation
Assay type: cell-based, Rana catesbeiana
Conditions: ATP final concentration 300 μM in FT medium; FT cells preloaded in 4 mM NE for 15 min; single electrode held at 700 mV (FIG. 9, trace 1)
Procedure: The cells, which have grown to become a confluent monolayer on the surface of the microarray, are “pre-loaded” with medium containing the appropriate amount of an oxidizable molecule, for example, 0.5-10 mM of a catecholamine such as norepinephrine (NE), for a time sufficient for the cells to endocytose the catecholamine, about 1-30 minutes. The pre-loading medium is then replaced with fresh medium, and the solution is grounded with a Ag/AgCl wire.
Within minutes of pre-loading, the cells are then exposed to a biological sample containing an analyte, the detection of which is desired. Binding of analyte to a receptor on the cells' surface increases intracellular calcium, thereby stimulating release of the pre-loaded NE. This secretion event is detected with millisecond temporal resolution via electrochemical oxidation of the secreted compound on an electrode that is voltage-clamped slightly above its redox potential. Increases in current due to oxidation of NE on the Cr/Au electrode is recorded. This is represented schematically in FIG. 4.
A microarray containing a confluent growth of FT cells was subsequently tested. To test the response properties of the cells to ATP (0.3 mM), microarrays with confluent cultures of cells were measured prior to preloading with NE. Then, cells were pre-loaded with varying concentrations of NE and ATP was reapplied. […]

Structure (SMILES): Nc1ncnc2c1ncn2[C@@H]1O[C@H](COP(=O)(O)OP(=O)(O)OP(=O)(O)O)[C@@H](O)[C@H]1O [ATP]
- duration of current response: 9 to 10 min
- peak current above baseline: approximately 800 pA

— patent publication US7776794B2, “Biosensor using living cells on silicon-based microarrays” (The Research Foundation of State University of New York, priority 2003, dated 2010)
